Data set [1] concerns Nucleic Acid. Description: Ratio of drug level in tumor to blood in mouse S180 cells xenografted Kunming mouse at 370 kBq/0.1 mL, iv after 15 mins by gamma counting. Particulars: tumour, 0.25 h; call rule not given here. It is filed as ADME, organism-based, CCRF S-180.
For data set [2], the system named is Brain. Description: Biodistribution in mouse S180 cells xenografted Kunming mouse brain at 370 kBq/0.1 mL, iv after 60 mins by gamma counting. The data set is classed as ADME, organism-based, CCRF S-180. As to conditions: in vivo, 1 h.
The test system of data set [3] is Kidney. Description: Biodistribution in mouse S180 cells xenografted Kunming mouse kidney at 370 kBq/0.1 mL, iv after 120 mins by gamma counting. The data set is classed as ADME, organism-based, CCRF S-180. Particulars: in vivo, 2 h.
Data set [4] concerns Liver. Nature of the data set: Biodistribution in mouse S180 cells xenografted Kunming mouse liver at 370 kBq/0.1 mL, iv after 15 mins by gamma counting. It is filed as ADME, organism-based, CCRF S-180. As to conditions: in vivo, 0.25 h.
For data set [5], the system named is Kidney. Description: Biodistribution in mouse S180 cells xenografted Kunming mouse kidney at 370 kBq/0.1 mL, iv after 5 mins by gamma counting. It is filed as ADME, organism-based, CCRF S-180. As to conditions: in vivo.
Data set [6] relates to Lung. Nature of the data set: Biodistribution in mouse S180 cells xenografted Kunming mouse lung at 370 kBq/0.1 mL, iv after 5 mins by gamma counting. It is filed as ADME, organism-based, CCRF S-180. Particulars: in vivo.
For data set [7], the system named is Nucleic Acid. Nature of the data set: Ratio of drug level in tumor to brain in mouse S180 cells xenografted Kunming mouse at 370 kBq/0.1 mL, iv after 60 mins by gamma counting. The data set is classed as ADME, organism-based, CCRF S-180. Particulars: in vivo, 1 h.
The subject of data set [8] is Blood. Nature of the data set: Biodistribution in mouse S180 cells xenografted Kunming mouse blood at 370 kBq/0.1 mL, iv after 15 mins by gamma counting. The data set is classed as ADME, organism-based, CCRF S-180. Particulars: in vivo, 0.25 h.
For data set [9], the system named is Heart. Nature of the data set: Biodistribution in mouse S180 cells xenografted Kunming mouse heart at 370 kBq/0.1 mL, iv after 30 mins by gamma counting. The data set is classed as ADME, organism-based, CCRF S-180. As to conditions: in vivo, 0.5 h.
The subject of data set [10] is Mus musculus. Description: Biodistribution in mouse S180 cells xenografted Kunming mouse right forelimb of tumor at 3.7 MBq, iv after 30 mins by PET imaging analysis. As to conditions: in vivo, 0.5 h. The data set is classed as ADME, organism-based, Neoplasm, CCRF S-180.
Data set [11] deals with Kidney. Nature of the data set: Biodistribution in mouse S180 cells xenografted Kunming mouse kidney at 370 kBq/0.1 mL, iv after 30 mins by gamma counting. The data set is classed as ADME, organism-based, CCRF S-180. As to conditions: in vivo, 0.5 h.
The test system of data set [12] is Liver. Nature of the data set: Biodistribution in mouse S180 cells xenografted Kunming mouse liver at 370 kBq/0.1 mL, iv after 120 mins by gamma counting. The data set is classed as ADME, organism-based, CCRF S-180. As to conditions: in vivo, 2 h.
In data set [13] the test system is Kidney. Nature of the data set: Biodistribution in mouse S180 cells xenografted Kunming mouse kidney at 370 kBq/0.1 mL, iv after 15 mins by gamma counting. It is filed as ADME, organism-based, CCRF S-180. As to conditions: in vivo, 0.25 h.
Data set [14] relates to Mus musculus. Nature of the data set: Biodistribution in mouse S180 cells xenografted Kunming mouse excretory organ at 3.7 MBq, iv after 30 mins by PET imaging analysis. It is filed as ADME, organism-based, CCRF S-180. As to conditions: in vivo, 0.5 h.
Data set [15] relates to Brain. Nature of the data set: Biodistribution in mouse S180 cells xenografted Kunming mouse brain at 370 kBq/0.1 mL, iv after 30 mins by gamma counting. The data set is classed as ADME, organism-based, CCRF S-180. Particulars: in vivo, 0.5 h.
In data set [16] the test system is CCRF S-180. Nature of the data set: Cellular uptake in mouse S180 cells after 30 mins. It is filed as ADME, cell-based. Particulars: ccrf s-180, 0.5 h.
Data set [17] concerns Mus musculus. Description: Biodistribution in mouse S180 cells xenografted Kunming mouse left forelimb of tumor at 3.7 MBq, iv after 30 mins by PET imaging analysis. The data set is classed as ADME, organism-based, Neoplasm, CCRF S-180. As to conditions: in vivo, 0.5 h.
For data set [18], the system named is Spleen. Nature of the data set: Biodistribution in mouse S180 cells xenografted Kunming mouse spleen at 370 kBq/0.1 mL, iv after 5 mins by gamma counting. It is filed as ADME, organism-based, CCRF S-180. Particulars: in vivo.
Data set [19] deals with Nucleic Acid. Description: Ratio of drug level in tumor to brain in mouse S180 cells xenografted Kunming mouse at 370 kBq/0.1 mL, iv after 30 mins by gamma counting. It is filed as ADME, organism-based, CCRF S-180. As to conditions: in vivo, 0.5 h.
Data set [20] has as its system Nucleic Acid. Nature of the data set: Ratio of drug level in tumor to muscle in mouse S180 cells xenografted Kunming mouse at 370 kBq/0.1 mL, iv after 15 mins by gamma counting. As to conditions: in vivo, 0.25 h. The data set is classed as ADME, organism-based, CCRF S-180.
Data set [21] deals with Heart. Nature of the data set: Biodistribution in mouse S180 cells xenografted Kunming mouse heart at 370 kBq/0.1 mL, iv after 15 mins by gamma counting. The data set is classed as ADME, organism-based, CCRF S-180. Particulars: in vivo, 0.25 h.
In data set [22] the test system is Spleen. Nature of the data set: Biodistribution in mouse S180 cells xenografted Kunming mouse spleen at 370 kBq/0.1 mL, iv after 60 mins by gamma counting. The data set is classed as ADME, organism-based, CCRF S-180. As to conditions: in vivo, 1 h.
The test system of data set [23] is Mus musculus. Description: Biodistribution in mouse S180 cells xenografted Kunming mouse tumor at 370 kBq/0.1 mL, iv after 120 mins by gamma counting. It is filed as ADME, organism-based, Neoplasm, CCRF S-180. As to conditions: in vivo, 2 h.
The test system of data set [24] is Heart. Description: Biodistribution in mouse S180 cells xenografted Kunming mouse heart at 370 kBq/0.1 mL, iv after 60 mins by gamma counting. As to conditions: in vivo, 1 h. It is filed as ADME, organism-based, CCRF S-180.
Data set [25] relates to Liver. Description: Biodistribution in mouse S180 cells xenografted Kunming mouse liver at 370 kBq/0.1 mL, iv after 5 mins by gamma counting. It is filed as ADME, organism-based, CCRF S-180. Particulars: in vivo.

Experimental findings from ChEMBL document CHEMBL1806489, “Synthesis and biological evaluation of novel F-18 labeled pyrazolo[1,5-a]pyrimidine derivatives: potential PET imaging agents for tumor detection” (Bioorg Med Chem Lett, 2011) are described below.

`Cc1cc(NCC[18F])n2ncc(C#N)c2n1`: the Ratio in [1] is on record as 0.94; in data set [7], 1.53; in data set [19] it was 2.23; in data set [20], 1.14. The Drug uptake was determined as 1.93 % ID/g in [2]; 1.92 % ID/g in data set [3]; 4.02 % ID/g in data set [4]; 7.93 % ID/g in data set [5]; 6.61 % ID/g in data set [6]; 4.65 % ID/g in data set [8]. Moreover, the Drug uptake in [9] is 4.06 % ID/g; in [10] it was “Not Active”; in [11], 3.28 % ID/g; in data set [12] it was 1.84 % ID/g; in [13], 5.04 % ID/g; in data set [14], “Active”. Further, the Drug uptake is reported as 2.47 % ID/g in [15]; “Active” in data set [16]; “Active” in data set [17]; 4.66 % ID/g in [18]; 3.57 % ID/g in data set [21]; 2.82 % ID/g in [22]. Besides, the Drug uptake in [23] is listed as 2.88 % ID/g; in data set [24] it was 3.46 % ID/g; in data set [25] it was 6.99 % ID/g.

With `Cc1cc(NCCNC(=O)c2ccc([N+](=O)[O-])cc2[18F])n2ncc(C#N)c2n1`, the Ratio in data set [1] came to 0.8; in data set [7] it was 8.69; in [19], 10.44; in data set [20] it was 0.96. In addition, the Drug uptake was 0.08 % ID/g in [2]; 0.74 % ID/g in data set [3]; 10.12 % ID/g in data set [4]; 17.7 % ID/g in [5]; 5.6 % ID/g in data set [6]; 2.5 % ID/g in data set [8]. Further, the Drug uptake in data set [9] came to 1.16 % ID/g; in data set [11], 5.63 % ID/g; in data set [12] it was 2.05 % ID/g; in data set [13], 8.45 % ID/g; in data set [15], 0.12 % ID/g; in data set [18] it was 4.54 % ID/g. For the same compound, the Drug uptake was determined as 2.78 % ID/g in [21]; 0.53 % ID/g in data set [22]; 0.21 % ID/g in data set [23]; 0.63 % ID/g in data set [24]; 17.9 % ID/g in data set [25].
